According to the supplement of paper PMC10307832:

Compound: C[C@H]([C@@H](C(=O)N)NC(=O)[C@@H]1CSSC[C@@H](C(=O)N[C@H](C(=O)N[C@@H](C(=O)N[C@H](C(=O)N1)CCCCN)CC2=CNC3=CC=CC=C32)CC4=CC=C(C=C4)O)NC(=O)[C@@H](CC5=CC=CC=C5)N)O [CAP-232] + O=C(CCCCCCC(=O)Nc1ccccc1)NO [Vorinostat] (partner 1 µM)
Assay: relative viability (nuclei count vs DMSO), 5 days (fraction); higher = more cells survive
In short: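 A single step with final 0.05% Triton X-100, 1% formaldehyde and 1 ug/ml Hoechst fixed the cells and stained nuclei 5 days after treatment. Lung cancer cell lines in 1536-well plates had been treated by pin tool the day after seeding with one drug alone or a fixed anchor-drug dose plus five library-drug doses (not always all listed) in √10 steps, and nuclei were counted on 4× images. Relative viability is the ratio of nuclei in treated wells to nuclei in vehicle wells, taken as the median of duplicate plates.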

Row | Cell Line | relative viability (first compound 0.4 µM) | relative viability (first compound 1.265 µM) | relative viability (first compound 4 µM) | relative viability (first compound 12.65 µM)
1 | 201T | 1.05 | 0.98 | 1 | 0.995
2 | A-427 | 0.937 | 0.882 | 0.879 | 0.893
3 | ABC-1 | 1.48 |  | 1.13 | 0.952
4 | BEN | 0.547 | 0.57 | 0.565 | 0.479
5 | CAL-12T | 0.805 | 0.752 | 0.832 | 0.431
6 | COR-L23 | 0.518 | 0.474 | 0.488 | 0.381
7 | COR-L 105 | 0.871 | 0.719 | 1 | 0.637
8 | ChaGo-K-1 | 0.835 | 0.724 | 0.709 | 0.71
9 | EKVX | 1.01 | 0.74 | 0.818 | 0.749
10 | EMC-BAC-2 | 0.818 | 0.395 | 0.483 | 0.383
11 | EPLC-272H |  | 0.615 | 0.545 | 0.158
12 | H3255 | 0.923 |  | 0.7 | 0.726
13 | HARA | 0.497 | 0.487 | 0.598 | 0.432
14 | HCC-15 | 0.825 | 0.858 | 0.959 | 0.61
15 | HCC-44 | 1.08 | 1.08 | 1.15 | 1.13
16 | HCC-78 | 0.47 | 0.489 | 0.388 | 0.441
17 | HCC-366 | 0.32 | 0.345 | 0.418 | 0.323
18 | HCC-827 | 0.888 | 0.832 | 0.883 | 0.891
19 | HOP-62 | 0.589 | 0.484 | 0.676 | 0.543
20 | IA-LM | 0.821 | 1.01 | 0.939 | 0.822
21 | LC-2-ad | 0.734 | 0.753 | 0.723 | 0.698
22 | LCLC-97TM1 | 0.876 | 0.764 | 1.08 | 0.995
23 | LCLC-103H | 0.875 | 0.729 | 0.827 | 0.825
24 | LK-2 | 0.277 | 0.249 | 0.275 | 0.298

Row | Cell Line | relative viability (first compound 0.4 µM) | relative viability (first compound 1.265 µM) | relative viability (first compound 4 µM) | relative viability (first compound 12.65 µM)
25 | LOU-NH91 | 1.02 | 0.882 | 0.931 | 0.415
26 | LU99A | 0.533 | 0.492 | 0.589 | 0.533
27 | LXF-289 | 0.89 | 0.785 | 0.772 | 0.774
28 | NCI-H23 | 0.578 | 0.534 | 0.558 | 0.54
29 | NCI-H322M | 0.91 | 0.894 | 0.932 | 1.11
30 | NCI-H358 | 0.755 | 0.709 | 0.71 | 0.375
31 | NCI-H441 | 0.879 | 0.824 | 0.936 | 0.77
32 | NCI-H460 | 1.01 | 0.865 | 1.1 | 0.363
33 | NCI-H520 | 0.71 | 0.695 | 0.75 | 0.577
34 | NCI-H522 | 0.971 | 0.9 | 0.93 | 0.867
35 | NCI-H596 | 0.666 | 0.613 | 0.582 | 0.53
36 | NCI-H647 | 0.541 | 0.593 | 0.602 | 0.414
37 | NCI-H650 | 0.505 | 0.423 | 0.364 | 0.457
38 | NCI-H661 | 0.848 | 0.848 | 0.875 | 0.752
39 | NCI-H727 | 1.19 | 1.08 | 1.39 | 1.23
40 | NCI-H838 | 0.727 | 0.756 | 0.754 | 0.736
41 | NCI-H1355 | 0.612 | 0.624 | 0.74 | 0.611
42 | NCI-H1395 | 1.11 |  | 0.79 | 0.573
43 | NCI-H1437 | 0.921 | 0.877 | 0.86 | 0.828
44 | NCI-H1650 | 0.645 | 0.514 | 0.622 | 0.183
45 | NCI-H1651 | 0.632 | 0.55 | 0.577 | 0.551
46 | NCI-H1666 | 1.09 | 1.06 | 1.19 | 0.856
47 | NCI-H1734 | 0.878 | 0.755 | 0.803 | 0.708
48 | NCI-H1755 | 0.698 | 0.635 | 0.755 | 0.73

Row | Cell Line | relative viability (first compound 0.4 µM) | relative viability (first compound 1.265 µM) | relative viability (first compound 4 µM) | relative viability (first compound 12.65 µM)
49 | NCI-H1793 | 0.947 | 0.703 | 0.728 | 0.653
50 | NCI-H1915 | 0.697 | 0.511 | 0.516 | 0.506
51 | NCI-H1944 | 0.614 | 0.673 | 0.559 | 0.552
52 | NCI-H1975 | 0.781 | 0.758 | 0.763 | 0.449
53 | NCI-H1993 | 0.702 | 0.802 | 0.791 | 0.749
54 | NCI-H2009 | 0.731 | 0.733 | 0.773 | 0.634
55 | NCI-H2023 | 0.599 | 0.426 | 0.645 | 0.251
56 | NCI-H2085 | 0.852 | 0.819 | 0.779 | 0.832
57 | NCI-H2087 | 0.985 | 0.728 | 0.886 | 0.439
58 | NCI-H2126 | 0.827 | 0.795 | 0.755 | 0.857
59 | NCI-H2170 | 0.823 | 0.835 | 0.886 | 0.794
60 | NCI-H2228 | 0.657 | 0.389 | 0.597 | 0.709
61 | NCI-H2342 | 0.688 | 0.647 | 0.623 | 0.742
62 | NCI-H2347 | 0.63 | 0.613 | 0.585 | 0.487
63 | NCI-H2405 | 1.22 | 1.09 | 1.01 | 0.79
64 | NCI-H3122 | 1.07 | 1.05 | 0.883 | 0.945
65 | PC-3 [JPC-3] | 1.3 | 0.741 | 0.864 | 0.741
66 | PC-14 | 0.793 | 0.701 | 0.725 | 0.522
67 | RERF-LC-KJ | 0.817 | 0.763 | 0.706 | 0.485
68 | SK-LU-1 | 0.744 | 0.792 | 0.761 | 0.591
69 | SK-MES-1 | 1.3 | 1.13 | 1.02 | 0.489
70 | SW 900 | 0.727 | 0.453 | 0.432 | 0.429
71 | SW 1573 | 0.7 | 0.867 | 0.926 | 0.309
72 | UMC-11 | 0.357 | 0.413 | 0.344 | 0.272
